The target of this experiment is SAE (Homo sapiens (Human), UniProt Q9UBT2). Put plainly: In vitro inhibitory activity assay against SAE (SUMO-2/3 immunofluorescence in HCT116 cells). The class given is cell-based. The settings on record: 6 h incubation, class symbols, read-out: SUMO IF IC50. A digest of the protocol:
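HCT116 cells treated with compounds for 6 h at 37 °C, then fixed, permeabilized and immunostained for SUMO-2/3 with FITC secondary detection. Fluorescence compared with DMSO control to give inhibition rate and IC50.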

SAE, sequence (Q9UBT2 whole entry): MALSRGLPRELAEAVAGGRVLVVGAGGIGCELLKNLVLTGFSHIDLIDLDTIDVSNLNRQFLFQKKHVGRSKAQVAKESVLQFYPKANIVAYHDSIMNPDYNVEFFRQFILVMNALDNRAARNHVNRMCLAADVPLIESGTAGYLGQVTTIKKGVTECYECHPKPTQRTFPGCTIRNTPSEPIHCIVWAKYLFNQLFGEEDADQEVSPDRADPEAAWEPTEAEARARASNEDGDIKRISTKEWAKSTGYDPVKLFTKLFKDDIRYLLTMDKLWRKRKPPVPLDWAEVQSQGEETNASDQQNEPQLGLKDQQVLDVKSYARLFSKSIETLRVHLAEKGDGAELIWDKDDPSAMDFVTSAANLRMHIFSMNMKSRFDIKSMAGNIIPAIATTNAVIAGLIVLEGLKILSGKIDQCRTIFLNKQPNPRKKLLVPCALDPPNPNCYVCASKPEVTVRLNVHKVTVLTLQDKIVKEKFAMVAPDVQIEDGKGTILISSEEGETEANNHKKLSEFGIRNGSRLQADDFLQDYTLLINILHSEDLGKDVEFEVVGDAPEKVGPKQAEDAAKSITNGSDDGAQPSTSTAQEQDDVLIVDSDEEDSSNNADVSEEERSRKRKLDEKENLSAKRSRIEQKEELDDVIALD
SAE, sequence (Q9UBE0 whole entry partner): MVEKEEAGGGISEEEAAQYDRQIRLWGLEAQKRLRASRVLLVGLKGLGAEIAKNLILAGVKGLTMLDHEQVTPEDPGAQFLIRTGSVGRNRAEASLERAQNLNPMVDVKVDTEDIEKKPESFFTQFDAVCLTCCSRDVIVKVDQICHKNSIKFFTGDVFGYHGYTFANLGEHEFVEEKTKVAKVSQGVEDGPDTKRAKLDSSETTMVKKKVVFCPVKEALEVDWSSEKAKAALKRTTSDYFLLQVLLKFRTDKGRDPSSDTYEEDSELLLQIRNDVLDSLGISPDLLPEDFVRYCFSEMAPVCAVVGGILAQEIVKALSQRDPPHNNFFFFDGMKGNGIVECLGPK

One may read the IC50 as the concentration that inhibits the measured activity by half. Consider `[2H]C1([2H])Cc2ccc(Cl)cc2[C@@]2(C=Cc3sc(C(=O)c4cncnc4N[C@@H]4C[C@H](COS(N)(=O)=O)[C@@H](O)C4)cc32)N1` [Compound 237], for which the IC50 is not above 50 nM. Under `[2H]C1([2H])CN[C@]2(C=Cc3sc(C(=O)c4cncnc4N[C@@H]4C[C@H](COS(N)(=O)=O)[C@@H](O)C4)cc32)c2cc(Cl)ccc21` [Compound 238] stands not above 50 nM.

Consider `NS(=O)(=O)OC[C@H]1C[C@@H](Nc2ncncc2C(=O)c2cc3c(s2)CO[C@]32NCCc3ccc(Cl)cc32)C[C@@H]1O` [Compound 239], for which the half-inhibitory concentration (IC50) lay within 50 to 200 nM. As to `NS(=O)(=O)OC[C@H]1C[C@@H](Nc2ncncc2C(=O)c2cc3c(s2)CC[C@]32NCC3(CC3)c3ccc(Cl)cc32)C[C@@H]1O` [Compound 240], the IC50 was in the range of 50 to 200 nM. Consider `NS(=O)(=O)OC[C@H]1C[C@@H](Nc2ncncc2C(=O)c2cc3c(s2)CC[C@]32NC3(CC3)Cc3ccc(Cl)cc32)C[C@@H]1O` [Compound 241], for which the IC50 was in the range of 50 to 200 nM. Under `NS(=O)(=O)OC[C@H]1C[C@@H](Nc2ncncc2C(=O)c2cc3c(s2)CC[C@@]32OCCc3ccc(Cl)cc32)C[C@@H]1O` [Compound 242] stands more than 200 nM. Under `NS(=O)(=O)OC[C@H]1C[C@@H](Nc2ncncc2C(=O)c2cc3c(s2)CC[C@]32OCCc3ccc(Cl)cc32)C[C@@H]1O` [Compound 243] stands not above 50 nM.

As for `NS(=O)(=O)OC[C@H]1C[C@@H](Nc2ncncc2C(=O)c2cc3c(s2)CCCC32OCCc3ccccc32)C[C@@H]1O` (stereo partly shown) [Compound 244], the IC50 was more than 200 nM. Under `NS(=O)(=O)OC[C@H]1C[C@@H](Nc2ncncc2C(=O)c2cc3c(s2)CCC[C@@]32OCCc3ccccc32)C[C@@H]1O` [Compound 245] stands more than 200 nM; under `NS(=O)(=O)OC[C@H]1C[C@@H](Nc2ncncc2C(=O)c2cc3c(s2)CCC[C@]32OCCc3ccccc32)C[C@@H]1O` [Compound 246], 50 to 200 nM; under `NS(=O)(=O)OC[C@H]1C[C@@H](Nc2ncncc2C(=O)c2cc3c(s2)CCCC32OCCc3ccc(F)cc32)C[C@@H]1O` (stereo partly shown) [Compound 247], 50 to 200 nM. In the case of `NS(=O)(=O)OC[C@H]1C[C@@H](Nc2ncncc2C(=O)c2cc3c(s2)CCC[C@@]32OCCc3ccc(F)cc32)C[C@@H]1O` [Compound 248], the 50% inhibitory concentration (IC50) was more than 200 nM.

Take `NS(=O)(=O)OC[C@H]1C[C@@H](Nc2ncncc2C(=O)c2cc3c(s2)CCC[C@]32OCCc3ccc(F)cc32)C[C@@H]1O` [Compound 249]: the IC50 is not above 50 nM. Under `N#Cc1ccc2c(c1)C1(CCCc3sc(C(=O)c4cncnc4N[C@@H]4C[C@H](COS(N)(=O)=O)[C@@H](O)C4)cc31)OCC2` (stereo partly shown) [Compound 250] stands 50 to 200 nM; under `N#Cc1ccc2c(c1)[C@]1(CCCc3sc(C(=O)c4cncnc4N[C@@H]4C[C@H](COS(N)(=O)=O)[C@@H](O)C4)cc31)OCC2` [Compound 251], more than 200 nM; under `N#Cc1ccc2c(c1)[C@@]1(CCCc3sc(C(=O)c4cncnc4N[C@@H]4C[C@H](COS(N)(=O)=O)[C@@H](O)C4)cc31)OCC2` [Compound 252], not above 50 nM. The same measure for `CN1Cc2sc(C(=O)c3cncnc3N[C@@H]3C[C@H](COS(N)(=O)=O)[C@@H](O)C3)cc2C2(C1)OCCc1ccccc12` (stereo partly shown) [Compound 253]: 50 to 200 nM.

`CN1Cc2sc(C(=O)c3cncnc3N[C@@H]3C[C@H](COS(N)(=O)=O)[C@@H](O)C3)cc2[C@@]2(C1)OCCc1ccccc12` [Compound 254]: the IC50 is more than 200 nM.

As to `CN1Cc2sc(C(=O)c3cncnc3N[C@@H]3C[C@H](COS(N)(=O)=O)[C@@H](O)C3)cc2[C@]2(C1)OCCc1ccccc12` [Compound 255], the IC50 was in the range of 50 to 200 nM.

Regarding `CN1Cc2sc(C(=O)c3cncnc3N[C@@H]3C[C@H](COS(N)(=O)=O)[C@@H](O)C3)cc2C2(C1)OCCc1ccc(F)cc12` (stereo partly shown) [Compound 256], the IC50 lay in the range of 50 to 200 nM. Under `CN1Cc2sc(C(=O)c3cncnc3N[C@@H]3C[C@H](COS(N)(=O)=O)[C@@H](O)C3)cc2[C@@]2(C1)OCCc1ccc(F)cc12` [Compound 257] stands more than 200 nM; under `CN1Cc2sc(C(=O)c3cncnc3N[C@@H]3C[C@H](COS(N)(=O)=O)[C@@H](O)C3)cc2[C@]2(C1)OCCc1ccc(F)cc12` [Compound 258], not above 50 nM; under `CN1Cc2sc(C(=O)c3cncnc3N[C@@H]3C[C@H](COS(N)(=O)=O)[C@@H](O)C3)cc2C2(C1)OCCc1ccc(Cl)cc12` (stereo partly shown) [Compound 259], not above 50 nM.

With `CN1Cc2sc(C(=O)c3cncnc3N[C@@H]3C[C@H](COS(N)(=O)=O)[C@@H](O)C3)cc2[C@@]2(C1)OCCc1ccc(Cl)cc12` [Compound 260], the IC50 was more than 200 nM. The same measure for `CN1Cc2sc(C(=O)c3cncnc3N[C@@H]3C[C@H](COS(N)(=O)=O)[C@@H](O)C3)cc2[C@]2(C1)OCCc1ccc(Cl)cc12` [Compound 261]: not above 50 nM; for `CCN1Cc2sc(C(=O)c3cncnc3N[C@@H]3C[C@H](COS(N)(=O)=O)[C@@H](O)C3)cc2C2(C1)OCCc1ccc(F)cc12` (stereo partly shown) [Compound 262]: 50 to 200 nM.

For `CCN1Cc2sc(C(=O)c3cncnc3N[C@@H]3C[C@H](COS(N)(=O)=O)[C@@H](O)C3)cc2[C@@]2(C1)OCCc1ccc(F)cc12` [Compound 263], the IC50 was more than 200 nM.

Regarding `CCN1Cc2sc(C(=O)c3cncnc3N[C@@H]3C[C@H](COS(N)(=O)=O)[C@@H](O)C3)cc2[C@]2(C1)OCCc1ccc(F)cc12` [Compound 264], the IC50 is not above 50 nM. Under `CCN1Cc2sc(C(=O)c3cncnc3N[C@@H]3C[C@H](COS(N)(=O)=O)[C@@H](O)C3)cc2C2(C1)OCCc1ccc(Cl)cc12` (stereo partly shown) [Compound 265] stands not above 50 nM; under `CCN1Cc2sc(C(=O)c3cncnc3N[C@@H]3C[C@H](COS(N)(=O)=O)[C@@H](O)C3)cc2[C@@]2(C1)OCCc1ccc(Cl)cc12` [Compound 266], more than 200 nM; under `CCN1Cc2sc(C(=O)c3cncnc3N[C@@H]3C[C@H](COS(N)(=O)=O)[C@@H](O)C3)cc2[C@]2(C1)OCCc1ccc(Cl)cc12` [Compound 267], not above 50 nM.

`CC(C)N1Cc2sc(C(=O)c3cncnc3N[C@@H]3C[C@H](COS(N)(=O)=O)[C@@H](O)C3)cc2C2(C1)OCCc1ccc(F)cc12` (stereo partly shown) [Compound 268]: the IC50 fell in the range of 50 to 200 nM. Take `CC(C)N1Cc2sc(C(=O)c3cncnc3N[C@@H]3C[C@H](COS(N)(=O)=O)[C@@H](O)C3)cc2[C@@]2(C1)OCCc1ccc(F)cc12` [Compound 269]: the IC50 is more than 200 nM.

Turning to `CC(C)N1Cc2sc(C(=O)c3cncnc3N[C@@H]3C[C@H](COS(N)(=O)=O)[C@@H](O)C3)cc2[C@]2(C1)OCCc1ccc(F)cc12` [Compound 270], the 50% inhibitory concentration (IC50) is not above 50 nM.

Take `CC(C)N1Cc2sc(C(=O)c3cncnc3N[C@@H]3C[C@H](COS(N)(=O)=O)[C@@H](O)C3)cc2C2(C1)OCCc1ccc(Cl)cc12` (stereo partly shown) [Compound 271]: the IC50 fell in the range of 50 to 200 nM. Under `CC(C)N1Cc2sc(C(=O)c3cncnc3N[C@@H]3C[C@H](COS(N)(=O)=O)[C@@H](O)C3)cc2[C@@]2(C1)OCCc1ccc(Cl)cc12` [Compound 272] stands more than 200 nM; under `CC(C)N1Cc2sc(C(=O)c3cncnc3N[C@@H]3C[C@H](COS(N)(=O)=O)[C@@H](O)C3)cc2[C@]2(C1)OCCc1ccc(Cl)cc12` [Compound 273], not above 50 nM. The same measure for `NS(=O)(=O)OC[C@H]1C[C@@H](Nc2ncncc2C(=O)c2cc3c(s2)CN(C2CC2)C[C@@]32OCCc3ccc(F)cc32)C[C@@H]1O` [Compound 275]: more than 200 nM; for `NS(=O)(=O)OC[C@H]1C[C@@H](Nc2ncncc2C(=O)c2cc3c(s2)CN(C2CC2)C[C@]32OCCc3ccc(F)cc32)C[C@@H]1O` [Compound 276]: not above 50 nM; for `NS(=O)(=O)OC[C@H]1C[C@@H](Nc2ncncc2C(=O)c2cc3c(s2)CN(C2CC2)CC32OCCc3ccc(Cl)cc32)C[C@@H]1O` (stereo partly shown) [Compound 277]: 50 to 200 nM. As to `NS(=O)(=O)OC[C@H]1C[C@@H](Nc2ncncc2C(=O)c2cc3c(s2)CN(C2CC2)C[C@@]32OCCc3ccc(Cl)cc32)C[C@@H]1O` [Compound 278], the IC50 was more than 200 nM. Under `NS(=O)(=O)OC[C@H]1C[C@@H](Nc2ncncc2C(=O)c2cc3c(s2)CN(C2CC2)C[C@]32OCCc3ccc(Cl)cc32)C[C@@H]1O` [Compound 279] stands not above 50 nM; under `NS(=O)(=O)OC[C@H]1C[C@@H](Nc2ncncc2C(=O)c2cc3c(s2)CCC32OCCc3ccccc32)C[C@@H]1O` (stereo partly shown) [Compound 280], more than 200 nM; under `NS(=O)(=O)OC[C@H]1C[C@@H](Nc2ncncc2C(=O)c2cc3c(s2)CC[C@@]32OCCc3ccccc32)C[C@@H]1O` [Compound 281], more than 200 nM.

Take `NS(=O)(=O)OC[C@H]1C[C@@H](Nc2ncncc2C(=O)c2cc3c(s2)CC[C@]32OCCc3ccccc32)C[C@@H]1O` [Compound 282]: the IC50 lay within 50 to 200 nM. Under `NS(=O)(=O)OC[C@H]1C[C@@H](Nc2ncncc2C(=O)c2cc3c(s2)CCC32OCCc3ccc(F)cc32)C[C@@H]1O` (stereo partly shown) [Compound 283] stands 50 to 200 nM; under `NS(=O)(=O)OC[C@H]1C[C@@H](Nc2ncncc2C(=O)c2cc3c(s2)CC[C@@]32OCCc3ccc(F)cc32)C[C@@H]1O` [Compound 284], more than 200 nM; under `NS(=O)(=O)OC[C@H]1C[C@@H](Nc2ncncc2C(=O)c2cc3c(s2)CC[C@]32OCCc3ccc(F)cc32)C[C@@H]1O` [Compound 285], 50 to 200 nM. Regarding `N#Cc1ccc2c(c1)C1(CCc3sc(C(=O)c4cncnc4N[C@@H]4C[C@H](COS(N)(=O)=O)[C@@H](O)C4)cc31)OCC2` (stereo partly shown) [Compound 286], the IC50 lay within 50 to 200 nM. As to `N#Cc1ccc2c(c1)[C@]1(CCc3sc(C(=O)c4cncnc4N[C@@H]4C[C@H](COS(N)(=O)=O)[C@@H](O)C4)cc31)OCC2` [Compound 287], the IC50 was more than 200 nM. The same measure for `N#Cc1ccc2c(c1)[C@@]1(CCc3sc(C(=O)c4cncnc4N[C@@H]4C[C@H](COS(N)(=O)=O)[C@@H](O)C4)cc31)OCC2` [Compound 288]: not above 50 nM; for `NS(=O)(=O)OC[C@H]1C[C@@H](Nc2ncncc2C(=O)c2cc3c(s2)C=CC32OCCc3ccccc32)C[C@@H]1O` (stereo partly shown) [Compound 289]: 50 to 200 nM.

Source of the values: US20260035382A1, “COMPOUNDS AS SUMO ACTIVATING ENZYME INHIBITORS” (WIGEN BIOMEDICINE TECHNOLOGY (SHANGHAI) CO., LTD., priority 2022, published 2026).
